{"source": "paper PMC5218480", "about": "(PLoS ONE, 2017)", "test_system": "MV-4-11 cells", "assay": "Gene expression microarray analysis (Affymetrix PrimeView) and GSEA", "assay_type": "cell-based, human", "set-up": "RFU PODN (11730768_x_at) / Fold change /veh PODN (11730768_x_at) / RFU LINC00158 (11744669_a_at) / Fold change /veh LINC00158 (11744669_a_at) / RFU DUSP10 (11751237_a_at) / Fold change /veh DUSP10 (11751237_a_at) / RFU ID3 (11757404_x_at) / Fold change /veh ID3 (11757404_x_at) / RFU PLEKHG5 (11737974_s_at) / Fold change /veh PLEKHG5 (11737974_s_at) / RFU LRRC4B (11730491_at) / Fold change /veh LRRC4B (11730491_at) / RFU GIMAP4 (11747438_a_at) / Fold change /veh GIMAP4 (11747438_a_at) / RFU KRT8 (11758183_x_at) / Fold change /veh KRT8 (11758183_x_at) / RFU CNN1 (11734310_a_at) / Fold change /veh CNN1 (11734310_a_at) / RFU VPS37D (11726825_at) / Fold change /veh VPS37D (11726825_at) / RFU C10orf10 (11716522_x_at) / Fold change /veh C10orf10 (11716522_x_at) / RFU KIR2DL2 /// KIR2DL4 /// KIR2DL5A /// KIR2DL5B /// KIR2DS1 /// KIR2DS2 /// KIR2DS3 /// KIR2DS4 /// KIR3DL3 /// KIR3DL3 /// KIR3DS1 (11738374_at) / Fold change /veh KIR2DL2 /// KIR2DL4 /// KIR2DL5A /// KIR2DL5B /// KIR2DS1 /// KIR2DS2 /// KIR2DS3 /// KIR2DS4 /// KIR3DL3 /// KIR3DL3 /// KIR3DS1 (11738374_at) / RFU C1QL1 (11718748_at) / Fold change /veh C1QL1 (11718748_at) / RFU TMPRSS4 (11747572_a_at) / Fold change /veh TMPRSS4 (11747572_a_at) / RFU HAMP (11756126_x_at) / Fold change /veh HAMP (11756126_x_at) / RFU RNFT2 (11725882_a_at) / Fold change /veh RNFT2 (11725882_a_at) / RFU NR4A2 (11747474_a_at) / Fold change /veh NR4A2 (11747474_a_at) / RFU ABCC12 (11746883_a_at) / Fold change /veh ABCC12 (11746883_a_at) / RFU TMEM136 (11760407_x_at) / Fold change /veh TMEM136 (11760407_x_at) / RFU CLDN22 /// WWC2 (11732394_at) / Fold change /veh CLDN22 /// WWC2 (11732394_at) / RFU HLA-DPB1 (11760878_x_at) / Fold change /veh HLA-DPB1 (11760878_x_at) / RFU SPINT1 (11716480_a_at) / Fold change /veh SPINT1 (11716480_a_at) / RFU GAP43 (11754022_s_at) / Fold change /veh GAP43 (11754022_s_at) / RFU A4GNT (11735810_at) / Fold change /veh A4GNT (11735810_at) / RFU PRB3 (11715151_x_at) / Fold change /veh PRB3 (11715151_x_at) / RFU TUBB4B (11761932_at) / Fold change /veh TUBB4B (11761932_at) / RFU CAPN14 (11732068_a_at) / Fold change /veh CAPN14 (11732068_a_at) / RFU TMCC2 (11721928_a_at) / Fold change /veh TMCC2 (11721928_a_at) / RFU IRGQ (11745062_a_at) / Fold change /veh IRGQ (11745062_a_at) / RFU FAM174B (11720279_a_at) / Fold change /veh FAM174B (11720279_a_at) / RFU TMPRSS4 (11748680_a_at) / Fold change /veh TMPRSS4 (11748680_a_at) / RFU FAM212B (11763350_a_at) / Fold change /veh FAM212B (11763350_a_at) / RFU PLEKHG5 (11743358_a_at) / Fold change /veh PLEKHG5 (11743358_a_at) / RFU ZSCAN30 (11745921_a_at) / Fold change /veh ZSCAN30 (11745921_a_at) / RFU CMKLR1 (11741424_a_at) / Fold change /veh CMKLR1 (11741424_a_at) / RFU LOC101060620 /// MAPK8IP1 (11723275_at) / Fold change /veh LOC101060620 /// MAPK8IP1 (11723275_at) / RFU SPTSSB (11747773_x_at) / Fold change /veh SPTSSB (11747773_x_at) / RFU PRSS12 (11739890_at) / Fold change /veh PRSS12 (11739890_at) / RFU BIN1 (11741810_x_at) / Fold change /veh BIN1 (11741810_x_at) / RFU WNT11 (11732464_a_at) / Fold change /veh WNT11 (11732464_a_at) / RFU C10orf10 (11716521_a_at) / Fold change /veh C10orf10 (11716521_a_at) / RFU C5orf56 (11738089_at) / Fold change /veh C5orf56 (11738089_at) / RFU CYB561 (11721691_x_at) / Fold change /veh CYB561 (11721691_x_at) / RFU ANKRD19P (11752326_a_at) / Fold change /veh ANKRD19P (11752326_a_at) / RFU OR2T12 /// OR2T33 /// OR2T8 (11738714_s_at) / Fold change /veh OR2T12 /// OR2T33 /// OR2T8 (11738714_s_at) / RFU VCAN (11748164_a_at) / Fold change /veh VCAN (11748164_a_at) / RFU JSRP1 (11732532_at) / Fold change /veh JSRP1 (11732532_at) / RFU KRTAP10-11 (11738290_x_at) / Fold change /veh KRTAP10-11 (11738290_x_at) / RFU MYO3A (11730013_a_at) / Fold change /veh MYO3A (11730013_a_at) / RFU EBF3 (11725865_a_at) / Fold change /veh EBF3 (11725865_a_at) / RFU CAMK2N1 (11719241_x_at) / Fold change /veh CAMK2N1 (11719241_x_at) / RFU C5orf56 (11738088_a_at) / Fold change /veh C5orf56 (11738088_a_at) / RFU OLFML3 (11715873_a_at) / Fold change /veh OLFML3 (11715873_a_at) / RFU LOC100653217 /// NTM (11731650_a_at) / Fold change /veh LOC100653217 /// NTM (11731650_a_at) / RFU MAPK11 (11762145_a_at) / Fold change /veh MAPK11 (11762145_a_at) / RFU FIZ1 (11724087_x_at) / Fold change /veh FIZ1 (11724087_x_at) / RFU OASL (11726364_x_at) / Fold change /veh OASL (11726364_x_at) / RFU SOX15 (11748057_x_at) / Fold change /veh SOX15 (11748057_x_at) / RFU CD79A (11719716_a_at) / Fold change /veh CD79A (11719716_a_at) / RFU HIST1H1D (11736915_at) / Fold change /veh HIST1H1D (11736915_at) / RFU CASKIN2 (11723855_a_at) / Fold change /veh CASKIN2 (11723855_a_at) / RFU LOC730098 (11760151_x_at) / Fold change /veh LOC730098 (11760151_x_at) / RFU OR4N2 (11742367_at) / Fold change /veh OR4N2 (11742367_at) / RFU PRRT2 (11749266_a_at) / Fold change /veh PRRT2 (11749266_a_at) / RFU SNX32 (11753110_a_at) / Fold change /veh SNX32 (11753110_a_at) / RFU CDHR5 (11726645_a_at) / Fold change /veh CDHR5 (11726645_a_at) / RFU RCAN1 (11760418_a_at) / Fold change /veh RCAN1 (11760418_a_at) / RFU FAM167A (11723789_a_at) / Fold change /veh FAM167A (11723789_a_at) / RFU FAM26E (11764081_at) / Fold change /veh FAM26E (11764081_at) / RFU ISYNA1 (11749810_s_at) / Fold change /veh ISYNA1 (11749810_s_at) / RFU ACY1 (11761880_at) / Fold change /veh ACY1 (11761880_at) / RFU 11764098_at / Fold change /veh 11764098_at / RFU SAMD14 (11745864_x_at) / Fold change /veh SAMD14 (11745864_x_at) / RFU NPB (11741838_a_at) / Fold change /veh NPB (11741838_a_at) / RFU TMPRSS6 (11731388_a_at) / Fold change /veh TMPRSS6 (11731388_a_at) / RFU KRTAP10-2 (11738614_at) / Fold change /veh KRTAP10-2 (11738614_at) / RFU ARHGAP8 /// PRR5-ARHGAP8 (11727945_x_at) / Fold change /veh ARHGAP8 /// PRR5-ARHGAP8 (11727945_x_at) / RFU KRTAP5-7 /// NADSYN1 (11734609_at) / Fold change /veh KRTAP5-7 /// NADSYN1 (11734609_at) / RFU RASL12 (11751679_a_at) / Fold change /veh RASL12 (11751679_a_at) / RFU CDKN2B (11736163_a_at) / Fold change /veh CDKN2B (11736163_a_at) / RFU PRF1 (11729649_at) / Fold change /veh PRF1 (11729649_at) / RFU, ZNF638 /// ZNF638-IT1 / Fold change vs veh, ZNF638 /// ZNF638-IT1 / RFU, PANK3 / Fold change vs veh, PANK3 / RFU, SH3YL1 / Fold change vs veh, SH3YL1 / RFU, ZEB2 / Fold change vs veh, ZEB2 / RFU, NRIP1 / Fold change vs veh, NRIP1 / RFU, PTTG1IP / Fold change vs veh, PTTG1IP / RFU, CAPN2 / Fold change vs veh, CAPN2 / RFU, MED14 / Fold change vs veh, MED14 / RFU, SNORA58 / Fold change vs veh, SNORA58 / RFU, C1orf63 / Fold change vs veh, C1orf63 / RFU, LRRFIP1 / Fold change vs veh, LRRFIP1 / RFU, NDUFAF7 / Fold change vs veh, NDUFAF7 / RFU, SLC12A2 / Fold change vs veh, SLC12A2 / RFU, IBTK / Fold change vs veh, IBTK / RFU, ESF1 / Fold change vs veh, ESF1 / Fold change vs veh, TMEM50B / RFU, TAOK1 / Fold change vs veh, TAOK1 / RFU, ACBD3 / Fold change vs veh, ACBD3 / RFU, TMA16 / Fold change vs veh, TMA16 / RFU, RWDD3 / Fold change vs veh, RWDD3 / RFU, BCAT1 / Fold change vs veh, BCAT1 / RFU, EDEM3 / Fold change vs veh, EDEM3 / RFU, TMEM33 / Fold change vs veh, TMEM33 / RFU, WDR75 / Fold change vs veh, WDR75 / RFU, AHCTF1 / Fold change vs veh, AHCTF1 / RFU, TFRC / Fold change vs veh, TFRC / RFU, ZDHHC17 / Fold change vs veh, ZDHHC17 / RFU, NOM1 / Fold change vs veh, NOM1 / RFU, ARL8B / Fold change vs veh, ARL8B / RFU, ZBTB11 / Fold change vs veh, ZBTB11 / RFU, TAMM41 / Fold change vs veh, TAMM41 / RFU, KIAA1704 /// LOC100996395 / Fold change vs veh, KIAA1704 /// LOC100996395 / RFU, ING1 / Fold change vs veh, ING1 / RFU, TRMT61B / Fold change vs veh, TRMT61B / RFU, FUBP3 / Fold change vs veh, FUBP3 / RFU, TP53 / Fold change vs veh, TP53 / RFU, TNKS2 / Fold change vs veh, TNKS2 / RFU, ZFP14 / Fold change vs veh, ZFP14 / RFU, ACTR2 / Fold change vs veh, ACTR2 / RFU, PPP3R1 / Fold change vs veh, PPP3R1 / RFU, PIK3R1 / Fold change vs veh, PIK3R1 / RFU, HNRNPA1 / Fold change vs veh, HNRNPA1 / RFU, RNF170 / Fold change vs veh, RNF170 / RFU, ZNF28 / Fold change vs veh, ZNF28 / RFU, RNGTT / Fold change vs veh, RNGTT / RFU, OGT / Fold change vs veh, OGT / RFU, BRD1 / Fold change vs veh, BRD1 / RFU, MARS / Fold change vs veh, MARS / RFU, ZNF655 / Fold change vs veh, ZNF655 / RFU, FAHD1 / Fold change vs veh, FAHD1 / RFU, BDP1 / Fold change vs veh, BDP1 / RFU, LRRCC1 / Fold change vs veh, LRRCC1 / RFU, ARID1A / Fold change vs veh, ARID1A / RFU, ZNF146 / Fold change vs veh, ZNF146 / RFU, ZNF330 / Fold change vs veh, ZNF330 / RFU, GPN3 / Fold change vs veh, GPN3 / RFU, C9orf123 / Fold change vs veh, C9orf123 / RFU, N4BP2L2 / Fold change vs veh, N4BP2L2 / RFU, ARFIP1 / Fold change vs veh, ARFIP1 / RFU, FAM179B / Fold change vs veh, FAM179B / RFU, BCL10 / Fold change vs veh, BCL10 / RFU, UHRF1BP1L / Fold change vs veh, UHRF1BP1L / RFU, BET1 / Fold change vs veh, BET1 / RFU, CNOT2 / Fold change vs veh, CNOT2 / RFU, ZNF268 / Fold change vs veh, ZNF268 / Fold change vs veh, ZNF507 / RFU, DGCR2 / Fold change vs veh, DGCR2 / RFU, WDSUB1 / Fold change vs veh, WDSUB1 / Fold change vs veh, HSP90B1 /// MIR3652 / RFU, ADSS / Fold change vs veh, ADSS / RFU, GK / Fold change vs veh, GK / RFU, ZNF148 / Fold change vs veh, ZNF148 / RFU, TAF9 / Fold change vs veh, TAF9 / RFU, SLC1A5 / Fold change vs veh, SLC1A5 / RFU, SLMO2 / Fold change vs veh, SLMO2 / RFU, ABCC4 / Fold change vs veh, ABCC4 / RFU, LOC101060439 /// RAP1B / Fold change vs veh, LOC101060439 /// RAP1B / RFU, RFX7 / Fold change vs veh, RFX7 / RFU, GTPBP10 / Fold change vs veh, GTPBP10 / RFU, CNEP1R1 / Fold change vs veh, CNEP1R1 / RFU, BIVM-ERCC5 /// ERCC5 / Fold change vs veh, BIVM-ERCC5 /// ERCC5 / RFU, ILF3 / Fold change vs veh, ILF3 / RFU 11762660_at / Fold change /veh 11762660_at / RFU VCAN (11757783_s_at) / Fold change /veh VCAN (11757783_s_at) / RFU DDX43 (11728927_at) / Fold change /veh DDX43 (11728927_at) / RFU KRT8 (11758188_x_at) / Fold change /veh KRT8 (11758188_x_at) / RFU NKD1 (11759106_at) / Fold change /veh NKD1 (11759106_at) / RFU SRD5A1 (11742802_a_at) / Fold change /veh SRD5A1 (11742802_a_at) / RFU TPSAB1 /// TPSB2 (11721975_s_at) / Fold change /veh TPSAB1 /// TPSB2 (11721975_s_at) / RFU GSTM3 (11746129_a_at) / Fold change /veh GSTM3 (11746129_a_at) / RFU IL23R (11737362_x_at) / Fold change /veh IL23R (11737362_x_at) / RFU TMEM51 (11727254_a_at) / Fold change /veh TMEM51 (11727254_a_at) / RFU PIWIL2 (11732686_x_at) / Fold change /veh PIWIL2 (11732686_x_at) / RFU ORM1 (11744905_x_at) / Fold change /veh ORM1 (11744905_x_at) / RFU CCDC152 (11743942_at) / Fold change /veh CCDC152 (11743942_at) / RFU ECM1 (11717891_a_at) / Fold change /veh ECM1 (11717891_a_at) / RFU IL23R (11748794_a_at) / Fold change /veh IL23R (11748794_a_at) / RFU TNFAIP8L3 (11732012_x_at) / Fold change /veh TNFAIP8L3 (11732012_x_at) / RFU MBOAT4 (11741988_at) / Fold change /veh MBOAT4 (11741988_at) / RFU 11764193_at / Fold change /veh 11764193_at / RFU TMEM53 (11763286_at) / Fold change /veh TMEM53 (11763286_at) / RFU MAGEB2 (11727129_at) / Fold change /veh MAGEB2 (11727129_at) / RFU TMEM200A (11744735_a_at) / Fold change /veh TMEM200A (11744735_a_at) / RFU CCDC152 (11751479_a_at) / Fold change /veh CCDC152 (11751479_a_at) / RFU FAM211A (11726209_a_at) / Fold change /veh FAM211A (11726209_a_at) / RFU RGS16 (11746705_a_at) / Fold change /veh RGS16 (11746705_a_at) / RFU VCAN (11755009_s_at) / Fold change /veh VCAN (11755009_s_at) / RFU RHOB (11743442_s_at) / Fold change /veh RHOB (11743442_s_at) / RFU RGS16 (11720943_a_at) / Fold change /veh RGS16 (11720943_a_at) / RFU RGS16 (11720944_at) / Fold change /veh RGS16 (11720944_at) / RFU, VPS4B / Fold change vs veh, VPS4B / RFU, CREB1 / Fold change vs veh, CREB1 / RFU, DNAJC13 / Fold change vs veh, DNAJC13 / RFU, GNAQ / Fold change vs veh, GNAQ / RFU, CDK5R1 / Fold change vs veh, CDK5R1 / RFU, ZRANB3 / Fold change vs veh, ZRANB3 / RFU, CUL4A / Fold change vs veh, CUL4A / RFU, CCNY / Fold change vs veh, CCNY / RFU, UFL1 / Fold change vs veh, UFL1 / RFU, COG3 / Fold change vs veh, COG3 / RFU, DIAPH2 / Fold change vs veh, DIAPH2 / RFU, SKA2 / Fold change vs veh, SKA2 / RFU, AFF3 / Fold change vs veh, AFF3 / RFU, LMF1 / Fold change vs veh, LMF1 / RFU, IPO11 / Fold change vs veh, IPO11 / RFU, DFFB / Fold change vs veh, DFFB / RFU, FOXP1 / Fold change vs veh, FOXP1 / RFU, CARD8 / Fold change vs veh, CARD8 / RFU, STRN3 / Fold change vs veh, STRN3 / RFU, ADK / Fold change vs veh, ADK / RFU, RASSF2 / Fold change vs veh, RASSF2 / RFU, WIPF1 / Fold change vs veh, WIPF1 / RFU, LARP1B / Fold change vs veh, LARP1B / RFU, RASA1 / Fold change vs veh, RASA1 / RFU, RB1 / Fold change vs veh, RB1 / RFU, PPFIA1 / Fold change vs veh, PPFIA1 / RFU, MAT2A / Fold change vs veh, MAT2A / RFU, CCT5 / Fold change vs veh, CCT5 / RFU, WDR92 / Fold change vs veh, WDR92 / RFU, CUX1 / Fold change vs veh, CUX1 / RFU, TTC7A / Fold change vs veh, TTC7A / RFU, TMEM135 / Fold change vs veh, TMEM135 / RFU, DEPTOR / Fold change vs veh, DEPTOR / RFU, CPM / Fold change vs veh, CPM / RFU, DNAJB6 / Fold change vs veh, DNAJB6 / RFU, CACNA2D3 / Fold change vs veh, CACNA2D3 / RFU, DTX4 / Fold change vs veh, DTX4 / RFU, TFCP2 / Fold change vs veh, TFCP2 / RFU, GMCL1 /// GMCL1P1 / Fold change vs veh, GMCL1 /// GMCL1P1 / RFU, AEBP2 / Fold change vs veh, AEBP2 / RFU, SNHG1 /// SNORD22 /// SNORD25 /// SNORD26 /// SNORD27 /// SNORD28 /// SNORD29 /// SNORD31 / Fold change vs veh, SNHG1 /// SNORD22 /// SNORD25 /// SNORD26 /// SNORD27 /// SNORD28 /// SNORD29 /// SNORD31 / Fold change (Aza/veh), C12orf56 (ProbeSet 11735607_a_at) / Fold change (ACY-1035/veh), C12orf56 (ProbeSet 11735607_a_at) / Fold change (Aza/veh), FGFR1OP (ProbeSet 11751329_s_at) / Fold change (ACY-1035/veh), FGFR1OP (ProbeSet 11751329_s_at) / Fold change (Aza/veh), VPS36 (ProbeSet 11739960_a_at) / Fold change (ACY-1035/veh), VPS36 (ProbeSet 11739960_a_at) / RFU SYPL1 (11715823_x_at) / Fold change /veh SYPL1 (11715823_x_at) / RFU IGFBP7 (11715501_s_at) / Fold change /veh IGFBP7 (11715501_s_at) / RFU REEP3 (11722064_at) / Fold change /veh REEP3 (11722064_at) / RFU IGLL1 (11728026_x_at) / Fold change /veh IGLL1 (11728026_x_at): dose or concentration left out as unconfirmed", "settings": "MV-4-11 cells, 48 hours", "data": [{"compound": "Nc1ncn([C@@H]2O[C@H](CO)[C@@H](O)[C@H]2O)c(=O)n1", "note": "[azacitidine]", "values": [{"measurement": "RFU VPS37D (11726825_at)", "value": 18.02, "unit": "RFU"}]}]}
